Experimental findings from patent US20120225909A1, “INDAZOLE ANALOG” (priority 2009, published 2012) are described below.

Holding throughout (format): cell-based
Test [1] addresses T1, human α1A-adrenergic receptor (Homo sapiens, UniProt P35348).
T1 sequence (P35348 1-466): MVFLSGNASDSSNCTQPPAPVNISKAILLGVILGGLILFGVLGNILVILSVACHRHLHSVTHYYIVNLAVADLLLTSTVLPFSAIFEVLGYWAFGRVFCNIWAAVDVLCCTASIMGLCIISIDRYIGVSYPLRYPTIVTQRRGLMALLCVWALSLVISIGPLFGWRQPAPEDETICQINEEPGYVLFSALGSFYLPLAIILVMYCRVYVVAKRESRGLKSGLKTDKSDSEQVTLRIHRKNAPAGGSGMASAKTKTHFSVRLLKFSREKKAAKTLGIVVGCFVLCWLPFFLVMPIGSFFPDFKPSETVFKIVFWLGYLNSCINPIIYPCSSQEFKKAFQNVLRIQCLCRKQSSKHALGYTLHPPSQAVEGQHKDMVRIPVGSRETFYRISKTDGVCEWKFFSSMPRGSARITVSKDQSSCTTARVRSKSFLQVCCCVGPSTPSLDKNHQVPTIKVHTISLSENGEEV
Kind of test: Test Case 4-A: human α1A-adrenergic receptor agonist activity (HEK293, Ca flux, Fura-2). Further details: expressed in transfected cells; host or cells: HEK293 cells, pcDNA3.1. The following applies: for Emax: HEK293, read-out: α1A receptor I.A.; for α1A receptor I.A.: maximum response of norepinephrine = 100%. The method, then: Measurement of Human α1A-Adrenergic Receptor Agonist Activity
The human α1A-adrenergic receptor agonist activity is measured using HEK293 cells transfected by a human α1A gene inserted in pcDNA3.1 (Invitrogen). […] After loading for 30 minutes in a CO2 incubator, the excess Fura-2AM is removed by washing twice with assay buffer. After preparing the centrifuged cells to make 5×10^6 cells/mL by assay buffer, 80 μL/well is dispensed into 96-well UV plates (made by Corning) to make cell plates. Sample plates with the test compound diluted 10-fold by assay buffer from 10^−5 to 10^−12 M and cell plates are set in an FDSS4000 (made by Hamamatsu Photonics). After preincubating for 180 seconds, measurement of fluorescence intensity (excitation wavelength 340 nm, 380 nm, measurement wavelength 500 nm) is begun at 2-second intervals. After approximately 30 seconds of measurement, 20 μL of test sample from a sample plate is added to the cell plate, and measurement is continued for another 270 seconds. The Ca flux caused by the test compound is calculated taking the difference in the maximum value of the fluorescence intensity ratio at 340 nm and 380 nm after adding the test compound and the fluorescence intensity ratio before adding the test compound as the peak height.

Test [2] addresses T2, human β3-adrenergic receptor (Homo sapiens, UniProt P13945).
T2 construct: A full-length human β3 gene is obtained from a human genomic library (made by Clontech) using this as the probe; expressed in transfected cells; host or cells: CHO (Chinese hamster ovary) cells, pcDNA3
The experiment in a line: Test Case 1-B: human β3-adrenergic receptor agonist activity (cAMP-Screen, 96-well). The following applies: for Emax: 0.5 h, read-out: β3 receptor I.A.; for EC50 / β3 receptor I.A.: Test Case 1-B; for EC50: CHO cells, cAMP; for β3 receptor I.A.: maximum response of isoproterenol = 100%. The method, then: Measurement of Human β3-Adrenergic Receptor Agonist Activity
The human β3-adrenergic receptor agonist activity is measured using CHO (Chinese hamster ovary) cells transfected by a human β3 gene inserted in pcDNA3 (Invitrogen). […] A full-length human β3 gene is obtained from a human genomic library (made by Clontech) using this as the probe. These cells are cultured in Ham's F-12 medium containing 10% fetal calf serum and 400 μg/mL genectin (Invitrogen). These cells are sown in 96-well plates to make 2×10^4 cells/well. After culturing for approximately 20 hours, they are allowed to stand for 15 minutes in 80 μL of serum-free Ham's F-12 medium. After first dissolving the test compound by DMSO, it is serially diluted by Ham's F-12 containing 100 mmol/L HEPES and 1 mmol/L isobutylmethylxanthine, and 20 μL is added to the cells. After culturing for 30 minutes, the medium is removed, and 0.1 mL of the assay/lysis buffer contained in the cAMP-Screen kit (made by Applied Bioscience) is added and incubated for 30 minutes at 37° C. The cAMP in this cell lysate is assayed by the above cAMP-Screen kit.

Test [3] concerns the target T3, human β2-adrenergic receptor (Homo sapiens, UniProt P07550).
T3 construct: expressed in transfected cells; host or cells: CHO (Chinese hamster ovary) cells, pcDNA3
Kind of test: Test Case 3-B: human β2-adrenergic receptor agonist activity. Conditions: for Emax: read-out: β2 receptor I.A.; for β2 receptor I.A.: Test Case 3-B, maximum response of isoproterenol = 100%. The method, then:
Measurement of Human β2-Adrenergic Receptor Agonist Activity
The human β2-adrenergic receptor agonist activity is measured by the same method as in Test Case 1-B using CHO (Chinese hamster ovary) cells transfected by a human β2 gene inserted in pcDNA3 (Invitrogen).

Test [4] has as its target T4, human β1-adrenergic receptor (Homo sapiens, UniProt P08588).
T4 construct: expressed in transfected cells; host or cells: CHO (Chinese hamster ovary) cells, pcDNA3
The experiment in a line: Test Case 2-B: human β1-adrenergic receptor agonist activity. Conditions: for Emax: read-out: β1 receptor I.A.; for β1 receptor I.A.: Test Case 2-B, maximum response of isoproterenol = 100%. The method, then:
Measurement of Human β1-Adrenergic Receptor Agonist Activity
The human β1-adrenergic receptor agonist activity is measured by the same method as in Test Case 1-B using CHO (Chinese hamster ovary) cells transfected by a human β1 gene inserted in pcDNA3 (Invitrogen).

T3 sequence (P07550 whole entry): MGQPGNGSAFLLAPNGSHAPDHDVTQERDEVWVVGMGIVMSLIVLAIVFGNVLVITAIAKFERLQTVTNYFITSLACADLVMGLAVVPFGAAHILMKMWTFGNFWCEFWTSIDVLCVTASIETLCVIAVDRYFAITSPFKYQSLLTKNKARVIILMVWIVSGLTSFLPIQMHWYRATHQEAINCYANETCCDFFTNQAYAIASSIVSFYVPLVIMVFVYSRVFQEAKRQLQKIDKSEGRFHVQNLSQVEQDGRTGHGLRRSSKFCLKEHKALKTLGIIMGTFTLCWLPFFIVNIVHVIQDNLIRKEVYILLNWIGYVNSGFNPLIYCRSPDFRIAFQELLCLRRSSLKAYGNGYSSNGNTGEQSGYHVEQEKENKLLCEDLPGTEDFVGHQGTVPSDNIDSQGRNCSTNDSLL
T4 sequence (P08588 whole entry): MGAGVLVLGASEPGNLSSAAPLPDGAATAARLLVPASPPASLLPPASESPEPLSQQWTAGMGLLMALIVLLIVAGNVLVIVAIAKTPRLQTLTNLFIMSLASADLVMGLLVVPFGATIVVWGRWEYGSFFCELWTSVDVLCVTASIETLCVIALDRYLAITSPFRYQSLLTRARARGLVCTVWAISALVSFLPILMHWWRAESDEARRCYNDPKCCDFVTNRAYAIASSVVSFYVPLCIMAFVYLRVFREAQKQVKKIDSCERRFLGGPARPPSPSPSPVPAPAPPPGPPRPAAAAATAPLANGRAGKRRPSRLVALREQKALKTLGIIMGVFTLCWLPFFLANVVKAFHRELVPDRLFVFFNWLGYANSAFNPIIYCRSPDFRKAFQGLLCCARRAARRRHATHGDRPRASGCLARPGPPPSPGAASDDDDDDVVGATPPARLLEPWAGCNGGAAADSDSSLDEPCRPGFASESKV
T2 sequence (P13945 whole entry): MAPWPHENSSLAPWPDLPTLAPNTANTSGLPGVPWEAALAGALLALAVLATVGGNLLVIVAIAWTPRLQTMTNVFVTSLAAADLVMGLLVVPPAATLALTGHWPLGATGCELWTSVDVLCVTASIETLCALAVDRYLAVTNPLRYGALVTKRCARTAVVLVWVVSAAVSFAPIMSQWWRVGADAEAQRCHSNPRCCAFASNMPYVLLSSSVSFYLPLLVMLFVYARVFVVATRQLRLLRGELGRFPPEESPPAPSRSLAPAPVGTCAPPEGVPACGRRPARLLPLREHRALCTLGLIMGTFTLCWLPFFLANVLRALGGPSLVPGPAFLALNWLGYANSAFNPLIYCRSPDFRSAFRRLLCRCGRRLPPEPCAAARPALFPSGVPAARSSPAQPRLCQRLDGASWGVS

For orientation: EC50 means the midpoint of the concentration-response curve. A higher EC50 goes with a need for much substance. Consider `COc1n[nH]c2cc(OCCNC[C@H](O)c3cccc(NS(=O)(=O)C4CC4)c3)ccc12` [ex17, (R)-N-( ? -(1-hydroxy-2-(2-(3-methoxyindazol-6-yloxy)ethylamino)ethyl)phenyl)cy ?], for which the Emax is 13% in test [1], 70% in test [2], 12% in test [3] and 1% in test [4]. This compound also gave an EC50 in test [2] of 39 nM.
Take `COc1n[nH]c2cc(OCCNC[C@H](O)c3cccc(NS(=O)(=O)c4cccc(Cl)c4)c3)ccc12` [ex42, (R)-3-chloro-N-(3-(1-hydroxy-2-(2-(3-methoxyindazol-6-yloxy)ethylamino)ethyl)phenyl) benzenesulfonamide]: in test [1] (Test Case 4-A, Table 4), the “α1A receptor I.A.” value is 0%. Moreover, in test [2], the EC50 came out at 3.8 nM and the “β3 receptor I.A.” value is listed as 83%. Moreover, the “β2 receptor I.A.” value in test [3] came out at 0%. In test [4], the “β1 receptor I.A.” value amounted to 4%.
Consider `COc1cccc(S(=O)(=O)Nc2cccc([C@@H](O)CNCCOc3ccc4c(OC)n[nH]c4c3)c2)c1` [ex43, (R)-N-(3-(1-hydroxy-2-(2-(3-methoxyindazol-6-yloxy)ethylamino)ethyl)phenyl)-3-methoxybenzene-sulfonamide], for which the “α1A receptor I.A.” value in test [1] (Test Case 4-A, Table 4) amounted to 0%. Also, in test [2], the EC50 came out at 15 nM and the “β3 receptor I.A.” value was 65%. Besides, the “β2 receptor I.A.” value in test [3] is on record as −5%. In addition, the “β1 receptor I.A.” value in test [4] is listed as −2%.
With `COc1n[nH]c2cc(OCCNC[C@H](O)c3cccc(NS(=O)(=O)C4CC4)c3)ccc12` [ex47, (R)-N-(3-(1-hydroxy-2-(2-(3-methoxyindazol-6-yloxy)-ethylamino)ethyl)phenyl)cyclo-propanesulfonamide], the EC50 in test [1] (Test Case 4-A, HEK293 cells, Ca flux, Table 4) came to 1220 nM; in test [2], 41 nM. Besides, the “α1A receptor I.A.” value in test [1] (Test Case 4-A, Table 4) turned out to be 28%. Moreover, the “β3 receptor I.A.” value in test [2] is on record as 72%. Besides, in test [3], the “β2 receptor I.A.” value was found to be 16%. For the same compound, the “β1 receptor I.A.” value in test [4] is given as 3%.
For the compound `Cc1cccc(S(=O)(=O)Nc2cccc([C@@H](O)CNCCOc3ccc4c(C)n[nH]c4c3)c2)c1` [ex49, (R)-N-(3-(1-hydroxy-2-(2-(3-methylindazol-6-yloxy)ethylamino)ethyl)phenyl)-3-methyl], the Emax in test [1] is 0%; in test [2] it was 96%; in test [3], -3%; in test [4], 10%. In test [2], this compound yielded an EC50 of 2.5 nM.
On the same counts, the results for `Cc1n[nH]c2cc(OCCNC[C@H](O)c3cccc(NS(=O)(=O)c4ccccc4N)c3)ccc12` [ex53, (R)-2-amino-N-(3-(1-hydroxy-2-(2-(3-methylindazol-6-yloxy)ethylamino)ethyl)phenyl) benzenesulfonamide] are 0%, 98%, 2%, 14% and 4.1 nM.
On the same counts, the results for `Nc1cccc(S(=O)(=O)Nc2cccc([C@@H](O)CNCCOc3ccc4c(OC(F)F)n[nH]c4c3)c2)c1` [ex104] are 0%, 116%, 4%, 8% and 0.42 nM.
On the same counts, the results for `CCc1n[nH]c2cc(OCCNC[C@H](O)c3cccc(NS(=O)(=O)c4cccc(N)c4)c3)ccc12` [ex118, (R)-3-amino-N-(3-(2-(2-(3-ethylindazol-6-yloxy)-ethylamino)-1-hydroxyethyl)-phenyl) benzenesulfonamide] are 0%, 77%, -1%, 13% and 0.25 nM.
As for `CCc1n[nH]c2cc(OCCNC[C@H](O)c3cccc(NS(=O)(=O)c4cccc(C)c4)c3)ccc12` [ex126, (R)-N-(3-(2-(2-(3-ethylindazol-6-yloxy)ethylamino)-1-hydroxyethyl)phenyl)-3-methylbenzene-sulfonamide], the Emax in test [1] amounted to 0%; in test [2], 85%; in test [3], 1%; in test [4] it was 8%. Also, in test [2], the response was half-maximal at 14 nM (EC50).
On the same counts, the results for `O=S(=O)(Nc1cccc([C@@H](O)CNCCOc2ccc3c(Cl)n[nH]c3c2)c1)C1CC1` [ex152] are 8%, 104%, 15%, 3% and 22 nM.
On the same counts, the results for `Nc1cccc(S(=O)(=O)Nc2cccc([C@@H](O)CNCCOc3ccc4c(Cl)n[nH]c4c3)c2)c1` [ex153, (R)- ? -amino-N-(3-(2-(2-(3-chloroindazol-6-yloxy)-ethylamino)-1-hydroxyethyl)-phenyl) benzenesulfonamide] are 0%, 95%, 13%, 12% and 0.22 nM.
As for `O=S(=O)(Nc1cccc([C@@H](O)CNCCOc2ccc3c(C(F)(F)F)n[nH]c3c2)c1)C1CC1` [ex181, (R)-N-(3-(1-hydroxy-2-(2-(3-(trifluoromethyl)indazol-6-yloxy)ethylamino)ethyl)phenyl) cyclopropane-sulfonamide], the Emax is 4% in test [1], 80% in test [2], 8% in test [3] and 1% in test [4]. Moreover, the 50% effective concentration (EC50) in test [2] is 16 nM.
Consider `CC(C)c1n[nH]c2cc(OCCNC[C@H](O)c3cccc(NS(=O)(=O)c4cccc(N)c4)c3)ccc12` [ex231, (R)-3-amino-N-(3-(1-hydroxy- ? -(2-( ? iso-propylindazol- ? - yloxy)ethylamino)ethyl)phenyl) benzene ? fonamide], for which the Emax in test [1] was determined as 0%; in test [2], 124%; in test [3], 3%; in test [4], 18%. The EC50 in test [2] stood at 0.2 nM.
On the same counts, the results for `Cc1n[nH]c2cc(OCCNC[C@H](O)c3cccc(NS(=O)(=O)c4cccc(O)c4)c3)ccc12` [ex236, (R)-3-hydroxy-N-(3-(1-hydroxy-2-(2-(3-methylindazol-6-yloxy)ethylamino)ethyl)phenyl)benzenesulfonamide] are 0%, 58%, 5%, 11% and 1 nM.
On the same counts, the results for `CNc1cccc(S(=O)(=O)Nc2cccc([C@@H](O)CNCCOc3ccc4c(C)n[nH]c4c3)c2)c1` [ex239, (R)—N-(3-(1-hydroxy-2-(2-(3-methylindazol-6-yloxy)ethylamino)ethyl)phenyl)-3-(methylamino)benzenesulfonamide] are 0%, 108%, 2%, 15% and 16 nM.
